“Also recorded” adds a separate entry of the source.
Legend:
[1] = system: CYP1A2 mRNA; test: CYP induction in cultured human hepatocytes; assay type: in vitro ADME; conditions: up to 10 μM
[2] = system: CYP2B6; test: CYP induction in cultured human hepatocytes; assay type: in vitro ADME; conditions: criteria >2-fold mRNA increase and ≥20% of positive control
[3] = biological target: T1, BSEP (Homo sapiens, UniProt O95342); test: Transporter inhibition, vesicular transport assay; assay type: in vitro ADME
T1 construct: host or cells: membrane vesicles
T1 sequence (O95342 whole entry): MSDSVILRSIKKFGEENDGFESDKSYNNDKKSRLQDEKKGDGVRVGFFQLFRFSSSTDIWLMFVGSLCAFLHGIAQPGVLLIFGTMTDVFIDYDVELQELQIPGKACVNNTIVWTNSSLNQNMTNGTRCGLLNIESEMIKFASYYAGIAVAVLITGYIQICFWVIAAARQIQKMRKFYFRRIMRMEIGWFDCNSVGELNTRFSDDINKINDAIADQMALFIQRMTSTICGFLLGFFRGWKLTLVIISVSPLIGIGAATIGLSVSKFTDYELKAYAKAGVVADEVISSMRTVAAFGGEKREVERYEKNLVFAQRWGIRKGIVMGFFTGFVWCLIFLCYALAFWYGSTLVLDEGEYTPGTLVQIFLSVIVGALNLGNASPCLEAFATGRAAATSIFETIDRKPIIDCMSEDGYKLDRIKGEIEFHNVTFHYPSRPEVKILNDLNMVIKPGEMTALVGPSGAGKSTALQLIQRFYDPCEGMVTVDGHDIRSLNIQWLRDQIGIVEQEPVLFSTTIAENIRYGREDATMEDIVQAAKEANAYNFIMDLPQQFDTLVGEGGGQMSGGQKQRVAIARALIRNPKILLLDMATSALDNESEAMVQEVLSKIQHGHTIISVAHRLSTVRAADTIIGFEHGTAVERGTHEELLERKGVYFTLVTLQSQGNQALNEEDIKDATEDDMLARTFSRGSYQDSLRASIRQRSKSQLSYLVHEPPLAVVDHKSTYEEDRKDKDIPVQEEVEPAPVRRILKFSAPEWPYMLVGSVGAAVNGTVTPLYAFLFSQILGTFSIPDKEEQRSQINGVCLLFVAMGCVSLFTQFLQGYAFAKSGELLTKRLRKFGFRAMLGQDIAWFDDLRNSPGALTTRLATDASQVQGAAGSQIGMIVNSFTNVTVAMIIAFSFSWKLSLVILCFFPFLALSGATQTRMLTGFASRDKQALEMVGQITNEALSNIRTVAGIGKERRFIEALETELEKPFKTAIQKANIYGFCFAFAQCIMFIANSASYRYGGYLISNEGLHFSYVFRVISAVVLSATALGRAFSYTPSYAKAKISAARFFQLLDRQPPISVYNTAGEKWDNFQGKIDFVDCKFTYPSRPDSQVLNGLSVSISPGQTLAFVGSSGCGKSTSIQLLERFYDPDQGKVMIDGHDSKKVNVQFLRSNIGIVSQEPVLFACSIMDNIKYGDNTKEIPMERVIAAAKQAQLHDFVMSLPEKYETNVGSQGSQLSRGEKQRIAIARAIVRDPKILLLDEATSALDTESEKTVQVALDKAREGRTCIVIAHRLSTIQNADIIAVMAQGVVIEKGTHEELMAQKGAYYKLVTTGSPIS

[4] = biological target: T2, OAT3 (Homo sapiens, UniProt Q8TCC7); test: Transporter inhibition, HEK293 cells; assay type: in vitro ADME
T2 construct: expressed in transfected cells; host or cells: HEK293
T2 sequence (Q8TCC7 1-542): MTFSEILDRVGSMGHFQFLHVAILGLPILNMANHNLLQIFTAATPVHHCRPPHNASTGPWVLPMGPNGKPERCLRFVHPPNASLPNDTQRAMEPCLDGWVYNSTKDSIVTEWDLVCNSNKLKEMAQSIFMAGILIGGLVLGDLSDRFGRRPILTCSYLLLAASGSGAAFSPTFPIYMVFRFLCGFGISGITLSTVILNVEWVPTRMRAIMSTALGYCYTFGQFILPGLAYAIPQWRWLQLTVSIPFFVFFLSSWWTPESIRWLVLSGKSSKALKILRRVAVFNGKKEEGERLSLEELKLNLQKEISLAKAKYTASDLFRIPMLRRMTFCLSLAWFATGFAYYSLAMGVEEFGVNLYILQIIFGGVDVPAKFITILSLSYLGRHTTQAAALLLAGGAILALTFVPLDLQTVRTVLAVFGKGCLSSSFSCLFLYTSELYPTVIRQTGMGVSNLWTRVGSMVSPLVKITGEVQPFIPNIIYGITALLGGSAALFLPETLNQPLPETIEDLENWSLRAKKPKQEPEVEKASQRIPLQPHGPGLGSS

[5] = biological target: T3, BCRP (Homo sapiens, UniProt Q9UNQ0); test: Transporter substrate evaluation, MDCKII-BCRP cells; assay type: in vitro ADME
T3 sequence (Q9UNQ0 1-655): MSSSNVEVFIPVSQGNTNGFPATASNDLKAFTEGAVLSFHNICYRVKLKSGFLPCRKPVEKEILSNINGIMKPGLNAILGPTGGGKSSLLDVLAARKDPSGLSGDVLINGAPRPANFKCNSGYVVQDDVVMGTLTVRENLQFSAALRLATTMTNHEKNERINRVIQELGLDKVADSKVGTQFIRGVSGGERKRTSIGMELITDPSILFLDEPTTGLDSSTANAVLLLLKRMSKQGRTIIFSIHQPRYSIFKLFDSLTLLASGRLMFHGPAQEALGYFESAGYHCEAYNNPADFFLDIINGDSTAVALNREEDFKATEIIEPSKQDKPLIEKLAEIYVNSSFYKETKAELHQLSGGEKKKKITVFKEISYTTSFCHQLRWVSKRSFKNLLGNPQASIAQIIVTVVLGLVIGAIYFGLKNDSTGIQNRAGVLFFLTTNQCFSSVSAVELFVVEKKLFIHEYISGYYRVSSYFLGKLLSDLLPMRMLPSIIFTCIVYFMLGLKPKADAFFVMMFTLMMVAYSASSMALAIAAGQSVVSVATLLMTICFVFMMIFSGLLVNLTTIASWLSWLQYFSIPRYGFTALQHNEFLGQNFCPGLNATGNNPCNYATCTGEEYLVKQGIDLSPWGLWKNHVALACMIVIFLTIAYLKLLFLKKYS

[6] = in vivo
[7] = male Sprague-Dawley rats; cited from earlier work
[8] = biological target: T4, OATP1B1 (Homo sapiens, UniProt Q9Y6L6); test: Transporter substrate evaluation, HEK293 cells; assay type: in vitro ADME; design: expressed in transfected cells; host or cells: HEK293; conditions: 1 and 10 μM
T4 sequence (Q9Y6L6 1-691): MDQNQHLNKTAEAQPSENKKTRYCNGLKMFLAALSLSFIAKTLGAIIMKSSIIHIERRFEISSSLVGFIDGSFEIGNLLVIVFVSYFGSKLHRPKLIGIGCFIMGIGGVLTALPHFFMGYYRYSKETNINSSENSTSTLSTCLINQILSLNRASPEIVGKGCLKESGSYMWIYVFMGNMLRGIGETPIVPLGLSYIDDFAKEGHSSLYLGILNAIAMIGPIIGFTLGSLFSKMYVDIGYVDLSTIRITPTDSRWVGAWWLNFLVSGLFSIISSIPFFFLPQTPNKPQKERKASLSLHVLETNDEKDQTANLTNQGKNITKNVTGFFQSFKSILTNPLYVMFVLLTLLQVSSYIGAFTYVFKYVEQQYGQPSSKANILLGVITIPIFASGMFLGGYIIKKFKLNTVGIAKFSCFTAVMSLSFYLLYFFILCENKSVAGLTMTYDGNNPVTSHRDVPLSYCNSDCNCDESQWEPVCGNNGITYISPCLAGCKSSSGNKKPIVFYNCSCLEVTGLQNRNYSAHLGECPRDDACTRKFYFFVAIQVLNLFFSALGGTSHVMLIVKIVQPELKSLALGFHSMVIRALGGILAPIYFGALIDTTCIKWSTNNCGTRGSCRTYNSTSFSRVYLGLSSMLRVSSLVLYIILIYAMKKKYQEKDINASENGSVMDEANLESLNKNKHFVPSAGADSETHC

[9] = biological target: P-gp (Homo sapiens, UniProt P08183); test: Transporter substrate evaluation, MDCKII-P-gp cells; assay type: in vitro ADME; design: expressed in transfected cells; host or cells: MDCKII (Madin-Darby canine kidney) cells
Sequence of P-gp (P08183 whole entry): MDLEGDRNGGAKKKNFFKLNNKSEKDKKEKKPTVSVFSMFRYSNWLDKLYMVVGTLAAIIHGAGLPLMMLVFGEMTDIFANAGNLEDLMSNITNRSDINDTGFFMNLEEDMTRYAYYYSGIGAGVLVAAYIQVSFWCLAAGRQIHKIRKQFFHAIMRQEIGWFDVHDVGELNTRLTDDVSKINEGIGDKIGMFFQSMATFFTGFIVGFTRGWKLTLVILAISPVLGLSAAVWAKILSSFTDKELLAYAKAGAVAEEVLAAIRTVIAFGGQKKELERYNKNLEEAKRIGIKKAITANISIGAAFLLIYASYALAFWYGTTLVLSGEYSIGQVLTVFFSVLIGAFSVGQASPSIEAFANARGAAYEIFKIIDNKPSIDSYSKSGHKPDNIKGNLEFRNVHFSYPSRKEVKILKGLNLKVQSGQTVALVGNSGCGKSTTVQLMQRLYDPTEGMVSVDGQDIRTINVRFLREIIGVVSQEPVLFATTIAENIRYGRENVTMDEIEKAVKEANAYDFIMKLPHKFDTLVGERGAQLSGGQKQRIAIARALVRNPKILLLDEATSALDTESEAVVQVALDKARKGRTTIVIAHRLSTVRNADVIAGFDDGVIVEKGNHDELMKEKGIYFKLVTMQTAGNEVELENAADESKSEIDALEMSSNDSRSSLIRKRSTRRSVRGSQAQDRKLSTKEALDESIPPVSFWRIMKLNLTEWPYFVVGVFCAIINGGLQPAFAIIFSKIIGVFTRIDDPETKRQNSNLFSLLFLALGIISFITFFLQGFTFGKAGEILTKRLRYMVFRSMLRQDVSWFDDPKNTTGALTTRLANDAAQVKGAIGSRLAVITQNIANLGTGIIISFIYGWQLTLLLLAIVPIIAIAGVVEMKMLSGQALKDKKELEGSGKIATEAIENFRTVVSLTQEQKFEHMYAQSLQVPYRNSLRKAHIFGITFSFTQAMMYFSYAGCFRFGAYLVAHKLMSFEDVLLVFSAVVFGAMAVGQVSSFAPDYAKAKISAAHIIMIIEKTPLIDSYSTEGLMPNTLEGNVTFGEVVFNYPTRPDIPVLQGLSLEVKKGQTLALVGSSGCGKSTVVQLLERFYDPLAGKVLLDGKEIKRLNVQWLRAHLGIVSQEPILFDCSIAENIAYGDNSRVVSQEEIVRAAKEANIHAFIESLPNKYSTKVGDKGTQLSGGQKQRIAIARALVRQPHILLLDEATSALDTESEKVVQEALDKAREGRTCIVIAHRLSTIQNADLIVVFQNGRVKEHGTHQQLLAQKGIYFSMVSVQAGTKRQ

In the case of O=C(O)C[C@H]1CCc2c1[nH]c1ccc(OCc3ccc(C4CCCC4)c(C(F)(F)F)c3)cc21 [Compound 1, (R)-2-(7-(4-cyclopentyl-3-(trifluoromethyl)benzyloxy)-1,2,3,4-tetrahydrocyclopenta[b]indol-3-yl)acetic acid], the “Induction potential on CYP1A2 mRNA” value [1] is reported as “no induction potential; also recorded: not a potential inducer”, the “Induction potential for CYP2B6” value [2] is reported as “no induction potential; also recorded: not a potential inducer” and the “Reduction of ATP-dependent uptake of [3H]-taurocholic acid in BSEP-expressing vesicles (inhibition)” value ([3]; 1 and 10 μM) is reported as “less than 50%”. The IC50 ([3]; vesicles, [3H]-taurocholic acid (0.4 μM), 1 and 10 μM tested) was greater than 10 µM, the “Reduction of uptake rate of estrone-3-sulfate into OAT3-expressing cells (inhibition)” value ([4]; 1 and 10 μM) was “less than 50%” and the IC50 ([4]; HEK293 cells, [3H]-estrone-3-sulfate (50 nM), 1 and 10 μM tested) was greater than 10 µM. The “Efflux ratio of Compound 1 across MDCKII-BCRP cells” value ([5]; 1 μM, absence and presence of Ko143 (1 μM)) was “less than two”, the efflux ratio at 10 μM ([5]; human, 10 μM) was 7.36 and the recovery ([5]; human, MDCKII-BCRP assay) was 27 to 48%. For the same molecule, the “Gender difference in mean plasma concentrations and exposure parameters” value [6] was “only moderately higher in females compared to males”, the Bradycardia [7] was “no or substantially no bradycardia” and the “Potential substrate of OATP1B1” value ([8]; HEK293 cells) was “not a substrate of OATP1B1 and not a substrate and No”. For the same molecule, the “Uptake ratio into OATP1B1-expressing cells” value ([8]; absence and presence of rifampin) was “less than two”, the efflux ratio at 1 μM ([9]; MDCK-MDR1, 1 μM) was 1.12 and the efflux ratio at 10 μM ([9]; MDCK-MDR1, 10 μM) was 3.17. For the same molecule, the recovery ([9]; MDCK-MDR1, MDCKII-P-gp assay) was 18 to 60%.

Reference: patent US20210228545A1, “METHODS OF TREATING CONDITIONS RELATED TO THE S1P1 RECEPTOR” (Arena Pharmaceuticals, Inc., priority 2018, published 2021)
